One compound from patent US11345659B2, “Pipecolic esters for inhibition of the proteasome” (THE BOARD OF REGENTS OF THE UNIVERSY OF TEXAS SYSTEM, priority 2018, dated 2022) can be followed below.

SMILES strings stand for the structures.

Test [1] relates to Human multiple myeloma RPMI 8226 cells. As to the kind of experiment: Proliferation of RPMI 8226 cells, live cell count by Trypan Blue exclusion. Type of test: cell-based. As for the experimental part:
Human multiple myeloma RPMI 8226 cells were purchased from American Type Culture Collection (ATCC; Manassas, Va.) and cultured according to ATCC specifications. […] The content of live cells was determined by excluding the Trypan Blue-stained cells. The cells were counted with TC20 Automated Cell Counter (Bio-Rad Laboratories, Hercules, Calif.) and EC50 was calculated with Origin Pro 2017 (OriginLab Corporation, Northampton, Mass.). When indicated, the cells were harvested, washed twice in PBS, resuspended in dilution buffer and stored in −80° C. To prepare crude lysates the thawed preparations were vortexed with glass beads and centrifuged for 5 min 5,000×g (4° C.). The supernate was centrifuged for 20 min 14,000×g. The resulting supernate was used as “crude lysate.” SDS-PAGE was carried in 12% acrylamide, Tris-glycine gels from Invitrogen. Chameleon Duo (Li-Cor) and Rainbow RPN800E (GE Healthcare) molecular weight standards were separated on each gel alongside lysates. The proteins were transferred to nitrocellulose membrane in a semi-dry system. The membranes were probed with specific primary antibodies from Life Technologies (S6, PS6) and Li-Cor (COX IV), and then with secondary antibodies from Li-Cor. In each experiment visualization of S6, PS6 and COX IV was performed on the same membrane with Odyssey Infrared Imaging System (Li-Cor).
The effects of compound 3 observed in vitro prompted its influence on the proliferation of cultured cancer cells to be tested, namely the multiple myeloma RPMI 8226 line. […] Such relatively low EC50, as compared to in vitro determined IC50 values for peptidase activities (2-3 μM; FIG. 3A and FIG. 3B) should come to no surprise. […] The in vitro readout of single peptidase activities is a useful and convenient measure of the catalytic prowess of proteasome. However, especially in the case of allosteric regulators, it may not fully reflect the important structural and functional effects.
Referring to FIG. […] The data are averages (±SD) of three-to-five independent experiments. […]

For another test, the target named is T1, FKBP12 (Homo sapiens, UniProt P62942).
T1 construct: endogenous in cells; host or cells: RPMI 8226 (ATCC)
As to the kind of experiment: Suppression of rapamycin inhibition of S6 phosphorylation by competing for FKBP12. Type of test: cell-based. To be noted: RPMI 8226, 24 hours; FK506 10 μM, compound 3 and B1 0.2 μM, with rapamycin. Here is the method: Human multiple myeloma RPMI 8226 cells were purchased from American Type Culture Collection (ATCC; Manassas, Va.) and cultured according to ATCC specifications. […] The content of live cells was determined by excluding the Trypan Blue-stained cells. The cells were counted with TC20 Automated Cell Counter (Bio-Rad Laboratories, Hercules, Calif.) and EC50 was calculated with Origin Pro 2017 (OriginLab Corporation, Northampton, Mass.). When indicated, the cells were harvested, washed twice in PBS, resuspended in dilution buffer and stored in −80° C. To prepare crude lysates the thawed preparations were vortexed with glass beads and centrifuged for 5 min 5,000×g (4° C.). The supernate was centrifuged for 20 min 14,000×g. The resulting supernate was used as “crude lysate.” SDS-PAGE was carried in 12% acrylamide, Tris-glycine gels from Invitrogen. Chameleon Duo (Li-Cor) and Rainbow RPN800E (GE Healthcare) molecular weight standards were separated on each gel alongside lysates. The proteins were transferred to nitrocellulose membrane in a semi-dry system. The membranes were probed with specific primary antibodies from Life Technologies (S6, PS6) and Li-Cor (COX IV), and then with secondary antibodies from Li-Cor. In each experiment visualization of S6, PS6 and COX IV was performed on the same membrane with Odyssey Infrared Imaging System (Li-Cor). […]

T1 sequence (P62942 whole entry): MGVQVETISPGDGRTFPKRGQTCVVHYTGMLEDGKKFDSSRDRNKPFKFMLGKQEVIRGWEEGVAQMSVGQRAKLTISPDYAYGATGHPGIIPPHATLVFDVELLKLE

A word on the EC50: it is the concentration that produces a half-maximal response. In the case of `COc1cc(CCCOC(=O)[C@@H]2CCCCN2C(=O)OCc2ccccc2)cc(OC)c1OC` [Compound 3, 1-benzyl 2-(3-(3,4,5-trimethoxyphenyl)propyl) (S)-piperidine-1,2-dicarboxylate], in test [1] (RPMI 8226, 0.2 μM, 24 hours, read-out: cell proliferation, % of control), the activity at 0.2 µM is 60 to 65%. In addition, the EC50 in test [1] (RPMI 8226, 48 hours, read-out: EC50, content of live cells) worked out at 550 nM. For the same compound, on FKBP12, the “suppression of rapamycin inhibition of S6 phosphorylation (FKBP12 binding)” value is “did not mimic the actions of FK506”.
